Measurements as given in the NIST ThermoML archive (doi:10.1021/je700260f).
Numbers after ± are expanded uncertainties.

Conditions: 313.15 K, Liquid, Vibrating tube method

Compound: FC(C(F)(F)F)C(F)(F)F [1,1,1,2,3,3,3-heptafluoropropane]
- mass density (24813 kPa): 1470.8 ± 1.6 kg/m3
- mass density (24848 kPa): 1470.8 ± 1.6 kg/m3
- mass density (24899 kPa): 1471.1 ± 1.6 kg/m3
- mass density (24951 kPa): 1471.3 ± 1.6 kg/m3
- mass density (24991 kPa): 1471.5 ± 1.6 kg/m3
- mass density (25031 kPa): 1471.7 ± 1.6 kg/m3
- mass density (25225 kPa): 1472.4 ± 1.6 kg/m3
- mass density (25266 kPa): 1472.5 ± 1.6 kg/m3
- mass density (25303 kPa): 1472.6 ± 1.6 kg/m3
- mass density (25346 kPa): 1472.9 ± 1.6 kg/m3
- mass density (25382 kPa): 1473 ± 1.6 kg/m3
- mass density (25428 kPa): 1473.2 ± 1.6 kg/m3
- mass density (25464 kPa): 1473.3 ± 1.6 kg/m3
- mass density (27024 kPa): 1479.1 ± 1.7 kg/m3
- mass density (27078 kPa): 1479.5 ± 1.7 kg/m3
- mass density (27113 kPa): 1479.5 ± 1.7 kg/m3
- mass density (27168 kPa): 1479.8 ± 1.7 kg/m3
- mass density (27215 kPa): 1479.9 ± 1.7 kg/m3
- mass density (27250 kPa): 1480.2 ± 1.7 kg/m3
- mass density (27333 kPa): 1480.4 ± 1.7 kg/m3
- mass density (27378 kPa): 1480.4 ± 1.7 kg/m3
- mass density (27415 kPa): 1480.8 ± 1.7 kg/m3
- mass density (27452 kPa): 1480.9 ± 1.7 kg/m3
- mass density (27512 kPa): 1481.1 ± 1.7 kg/m3
- mass density (27562 kPa): 1481.4 ± 1.7 kg/m3
- mass density (27616 kPa): 1481.6 ± 1.7 kg/m3
- mass density (27789 kPa): 1482.1 ± 1.7 kg/m3
- mass density (27894 kPa): 1482.6 ± 1.7 kg/m3
- mass density (27923 kPa): 1482.7 ± 1.7 kg/m3
- mass density (27959 kPa): 1482.7 ± 1.7 kg/m3
- mass density (27997 kPa): 1482.8 ± 1.7 kg/m3
- mass density (28031 kPa): 1483 ± 1.7 kg/m3
- mass density (28065 kPa): 1483.1 ± 1.7 kg/m3
- mass density (28094 kPa): 1483.2 ± 1.7 kg/m3
- mass density (28137 kPa): 1483.5 ± 1.7 kg/m3
- mass density (28166 kPa): 1483.6 ± 1.7 kg/m3
- mass density (28213 kPa): 1483.6 ± 1.7 kg/m3
- mass density (28253 kPa): 1483.8 ± 1.7 kg/m3
- mass density (28282 kPa): 1484 ± 1.7 kg/m3
- mass density (28311 kPa): 1484 ± 1.7 kg/m3
- mass density (28349 kPa): 1484.3 ± 1.7 kg/m3
- mass density (28389 kPa): 1484.3 ± 1.7 kg/m3
- mass density (28424 kPa): 1484.5 ± 1.7 kg/m3
- mass density (28465 kPa): 1484.6 ± 1.7 kg/m3
- mass density (28499 kPa): 1484.8 ± 1.7 kg/m3
- mass density (28538 kPa): 1484.9 ± 1.7 kg/m3
- mass density (28567 kPa): 1485 ± 1.7 kg/m3
- mass density (28613 kPa): 1485.2 ± 1.7 kg/m3
- mass density (28643 kPa): 1485.2 ± 1.7 kg/m3
- mass density (28674 kPa): 1485.3 ± 1.7 kg/m3
- mass density (28717 kPa): 1485.6 ± 1.7 kg/m3
- mass density (28761 kPa): 1485.7 ± 1.7 kg/m3
- mass density (29100 kPa): 1487 ± 1.7 kg/m3
- mass density (29135 kPa): 1487 ± 1.7 kg/m3
- mass density (29166 kPa): 1487.2 ± 1.7 kg/m3
- mass density (29208 kPa): 1487.3 ± 1.7 kg/m3
- mass density (29239 kPa): 1487.5 ± 1.7 kg/m3
- mass density (29269 kPa): 1487.5 ± 1.7 kg/m3
- mass density (29305 kPa): 1487.6 ± 1.7 kg/m3
- mass density (29341 kPa): 1487.9 ± 1.7 kg/m3
- mass density (29381 kPa): 1487.9 ± 1.7 kg/m3
- mass density (29416 kPa): 1488 ± 1.7 kg/m3
- mass density (29450 kPa): 1488.1 ± 1.7 kg/m3
- mass density (29496 kPa): 1488.3 ± 1.7 kg/m3
- mass density (29525 kPa): 1488.6 ± 1.7 kg/m3
- mass density (29570 kPa): 1488.6 ± 1.7 kg/m3
- mass density (29610 kPa): 1488.7 ± 1.7 kg/m3
- mass density (31429 kPa): 1495.1 ± 1.7 kg/m3
- mass density (31477 kPa): 1495.4 ± 1.7 kg/m3
- mass density (31513 kPa): 1495.4 ± 1.7 kg/m3
- mass density (31554 kPa): 1495.6 ± 1.7 kg/m3
- mass density (31782 kPa): 1496.5 ± 1.7 kg/m3
- mass density (31819 kPa): 1496.4 ± 1.7 kg/m3
- mass density (31856 kPa): 1496.6 ± 1.7 kg/m3
- mass density (31894 kPa): 1496.7 ± 1.7 kg/m3
- mass density (31931 kPa): 1496.9 ± 1.7 kg/m3
- mass density (31964 kPa): 1497 ± 1.7 kg/m3
- mass density (32008 kPa): 1497.3 ± 1.7 kg/m3
- mass density (32040 kPa): 1497.3 ± 1.7 kg/m3
- mass density (32094 kPa): 1497.4 ± 1.7 kg/m3
- mass density (32170 kPa): 1497.7 ± 1.7 kg/m3
- mass density (32235 kPa): 1497.9 ± 1.7 kg/m3
- mass density (32288 kPa): 1498.1 ± 1.7 kg/m3
- mass density (32326 kPa): 1498.2 ± 1.7 kg/m3
- mass density (32700 kPa): 1499.5 ± 1.7 kg/m3
- mass density (33062 kPa): 1500.7 ± 1.7 kg/m3
- mass density (33127 kPa): 1500.8 ± 1.7 kg/m3
- mass density (33176 kPa): 1501.1 ± 1.7 kg/m3
- mass density (33220 kPa): 1501.2 ± 1.7 kg/m3
- mass density (33258 kPa): 1501.4 ± 1.7 kg/m3
- mass density (33290 kPa): 1501.5 ± 1.7 kg/m3
- mass density (33332 kPa): 1501.7 ± 1.7 kg/m3
- mass density (33375 kPa): 1501.7 ± 1.7 kg/m3
- mass density (33408 kPa): 1501.8 ± 1.7 kg/m3
- mass density (33462 kPa): 1501.9 ± 1.7 kg/m3
- mass density (33502 kPa): 1502.1 ± 1.7 kg/m3
- mass density (33551 kPa): 1502.5 ± 1.7 kg/m3
- mass density (33585 kPa): 1502.3 ± 1.7 kg/m3
- mass density (33640 kPa): 1502.6 ± 1.7 kg/m3
- mass density (33684 kPa): 1502.6 ± 1.7 kg/m3
- mass density (33729 kPa): 1502.8 ± 1.7 kg/m3
- mass density (33763 kPa): 1503 ± 1.7 kg/m3
- mass density (33807 kPa): 1503.2 ± 1.7 kg/m3
